Here are results for two compounds from patent publication US6897298B2, “Method for extracting a compound from a ginseng spp. plant, ginseng or pseudo-ginseng” (priority 2001, dated 2005).

Structures are written as SMILES. Where two headings read alike, the source gives them in different places.

Data set [1] deals with cerebral arteria embolisms/reperfusion injury rat model. Description: Measurement of area of cerebral embolisms (TTC staining) after cerebral ischemia/reperfusion. It counts as in vivo. The procedure: (§1) Prepare cerebral arteria embolisms/reperfusion injury rat model according to Longna method. To bring the animal into a state of narcosis, give an intravenous injection of urethane (0.4 ml/100 g weight). Maintain body temperature of the rat at 37±0.5° C. (anal temperature). Let the rat lie on a plate with face toward the ceiling. Make a cut at the right middle of its neck. By means of microsurgery techniques, separate left neck communis and its branches. Isolate arteria carotis externa. By means of electric solidification, cut off occipital arteria, thyroid superia gland arteria, and arteria phyrynix externa, all of which are setting out from arteria carotis externa. Isolate arteria carotis externa further towards the head end. Tie the arteria carotis externa at a place as far as possible. Clamp the beginning part of the arteria carotis externa to make it close with an artery clamp. Tie a loose knot (with 5-0 silk thread going through the arteria carotis externa) at a place between the artery clamp and the tying thread. […]
Open the cranium and take the whole brain. […] The area of obstructed cerebral tissue was measured with a fully automatic image analysis system (Model IPAS-C, Kontror Co, Germany). […] For this experiment, the average value of those measured of slices 2 and 3 were taken as the measured result for each animal's area of obstruction. […]

Data set [2] shares this test system. The experiment in a line: Scanning record of electroencephalogram after cerebral ischemia/reperfusion. To be noted: 1 h block. Format: in vivo. The procedure: as §1, with “thread. At a place close to the knot, cut to block the arteria carotis externa.” for “thread.”
One needle-type electrode was placed at top forehead. […] Electroencephalogram change outside of skin before and after obstruction was recorded with 8-lead physiological recorder made by Japan Optical-Electric Co.

Data set [3] shares this test system. Description: Pathological exam of nerve cells and nerve fibers (HE, myelin staining). It counts as in vivo. Conditions: iv 50 mg/kg, 10 mg/kg and 2 mg/kg; dosage-dependent. The procedure:
as §1, with “thread. At a place close to the knot, cut to block the arteria carotis externa. Put into the arteria carotis externa a 3-0 nylon thread, which is 5 cm long and has a drumstick-like head. Tie a fast knot on the silk thread on the arteria crotis externa to avoid bleeding. Remove the arteria clamp. Push the nylon thread slowly into the arteria carotis externa.” for “thread.”

Data set [4] has the same test system. Description: Behavior change score (Longa method). It counts as in vivo. To be noted: 5 hours after reperfusion. The procedure:
as §1, with “thread. At a place close to the knot, cut to block the arteria carotis externa. Put into the arteria carotis externa a 3-0 nylon thread, which is 5 cm long and has a drumstick-like head. Tie a fast knot on the silk thread on the arteria crotis externa to avoid bleeding. Remove the arteria clamp. Push the nylon thread slowly into the arteria carotis externa.” for “thread.”

In data set [5] the test system is cerebral ischemia/reperfusion injury rats. The experiment in a line: SOD activity in cerebral tissue homogenate (pyrogallol self-oxidation method). Format: in vivo, rat. To be noted: Compound (I) 50 mg/kg, Nimodipine 40 μg/kg iv; 5 h after reperfusion; normal 70.30±24.7 u/g, salt-water 46.7±16.6 u/g. The procedure: 38 rats were used. After making cerebral ischemia/reperfusion injury, the rats were randomly divided into groups of contrast (equal volume of physiological salt-water), Nimodipine treatment (40 μg/kg), and Compound (I) treatment (50 mg/kg). […] After another 5 minutes, drug was given iv under tongue. 60 minutes after cerebral ischemia was made, reperfusion was made. After another 5 hours, rat brains were stripped off rapidly according to Gotoh Method. Right and left brain hemispheres were weighed respectively, and were kept in fridge at −70° C.
The tissue to be measured (about 0.3˜0.5) were washed clean with physiological salt-water. Then cold distilled water was used to prepare homogenate on a glass blender. Then centrifugal machine was set at 1,500 rpm to work for 15 minutes, the temperature being 0° C. […]
(1) SOD measurement (pyrogallol self-oxidation method): Take a 15 ml test tube. […] Change of absorbance is measured under conditions of: ultra-violet spectrophotometer (UV 1601 PC, Shimatsu Co., Japan), wavelength of 325 nm, and slit of 2. Then activity units are calculated according to the following formula: Tissue homogenate SOD(u/g cerebral tissue)=(control tube−sample tube)/control tube/0.5×1/cerebral tissue weight (g)

For data set [6] the test system is unchanged. Description: MDA content in cerebral tissue homogenate (TBA method). Conditions: Compound (I) 50 mg/kg, Nimodipine 40 μg/kg iv; 5 h after reperfusion; salt-water group 87.7±27.5; p>0.05 vs normal group. Format: in vivo, rat.
The test system of data set [7] is cerebral arteria embolisms/reperfusion injury rat model. The experiment in a line: Measurement of water content in brain tissue. Format: in vivo. To be noted: Compound (I) intravenous injection.
Another data set is described as follows: Acute toxicity test. Conditions: in vivo, Mouse. From the text:
Results of acute toxicity test for Compound (I) were: […]

Data set [8] is described as follows: Three kinds of experiments (disability, cancer, mutation). An excerpt:
Therefore, its cure effects are good.

Data set [9] in a line: Physical and chemical properties: solubility. It counts as physicochemical. To be noted: substance obtained in Example 1. The procedure: Physical and chemical property tests and element analysis were carried out for the substance. Also done were its mass spectra, infrared and ultraviolet spectrum, ^1H and ^13C nuclear magnetic resonance tests. The conditions and results were:
Physical and chemical properties: white or a little yellow powder. Melting point—209˜214° C.

A further data set has as its system Rats. Conditions: for toxicity finding: iv 14 days.

On to `CC(C)=CCC[C@](C)(OCC1OC(CO)C(O)C(O)C1O)C1CC[C@]2(C)C1[C@H](O)CC1[C@@]3(C)CC[C@H](OC4OC(CO)C(O)C(O)C4OC4OC(CO)C(O)C(O)C4O)C(C)(C)C3CC[C@]12C` (stereo partly drawn) [Compound (I), 20-(S)-protopanaxadiol-3-[O-β-D-glucopyranosyl (1→2)-β-D-glucopyranosyl]-20-O-β-D-glucopyranoside], for which the “embolism (infarction) area of cerebral tissue” value in data set [1] (Compound (I) 2˜50 mg/kg iv, 1 h ischemia, 5 h after reperfusion, dosage dependent) is listed as “could decrease embolism area of cerebellum tissue”. Besides, in data set [1] (iv 50, 10 and 2 mg/kg, overall conclusion over all indexes), the “cure effects compared with Nimodipine” value is listed as “better than that of active contrast drug Nimodipine”. The amplitude of electroencephalogram result in data set [2] (2 mg/kg dosage, 5 h after reperfusion) is on record as “tendency of improvement of electroencephalogram, but there was no significant statistics difference”; in [2] (50 mg/kg and 10 mg/kg, 5 h after reperfusion (p<0.01)), “could improve electroencephalogram significantly”. For the same compound, the “degree of denaturalization of nerve fibers” value in data set [3] was “could relieve the degree of denaturalization of nerve fibers”. Also, the “number of nerve cells of necrosis” value in data set [3] is “could decrease the number of nerve cells of necrosis”. Also, the “behavior obstruction caused by cerebral injuries” value in data set [4] is “could be significantly relieved”. Also, the “SOD activity compared with normal contrast group (false surgery)” value in data set [5] is “no significant statistics difference”. Besides, the MDA content in data set [6] worked out at 65.8±19 nmol/mg tissue weight. Moreover, the “water content increase of cerebral tissue in blocked area” value in data set [7] was “could significantly lower water content increase of cerebral tissue in blocked area”. The LD50 came to 584 mg/kg in the data set “Acute toxicity test” (im, intramuscular injection, 95% confidence margin 564.77˜603.79 mg/kg) and 356 mg/kg in the data set “Acute toxicity test” (intravenous injection, 95% confidence margin 346.01˜366.64 mg/kg). The “causes disability, cancer, and mutation” value in [8] is “does not have these side effects”. In data set [9], the solubility result was “Very easy to dissolve in lower alcohol, acetone, chloroform, and hot water”. Also, the toxicity finding result is recorded as “poisonous dosage” with Rats (100 mg/kg); “minor local stimulation” with Rats (10 and 30 mg/kg). For the same compound, in the data set with Rats (iv injection for 14 days, injury correlated positively with dosage), the main toxic finding entry is on record as “inflammation of tail vein inner membrane”.
As to `COCCOC(=O)C1=C(C)NC(C)=C(C(=O)OC(C)C)C1c1cccc([N+](=O)[O-])c1` (stereo not shown) [Nimodipine, reference compound], the “behavior scores (0-5)” value in data set [4] (salt-water contrast group 3.3±1.0, p>0.05) is recorded as 2.9±1.2 scores. Besides, in data set [6], the MDA content was found to be 67.0±21.8 nmol/mg tissue weight.

One may read the LD50 as the dose expected to kill half of the subjects tested. Lower therefore signals a more toxic substance.
